# Assay results published in patent US20260365672A1, “K-RAS MUTANT PROTEIN INHIBITORS” (Jacobio Pharmaceuticals Co., Ltd., priority 2022, published 2026).
# Target: T1, GDP-KRAS G12V (Homo sapiens, UniProt P01116, G12V)
# T1 construct: GDP-loaded HIS-KRAS(G12V, aa 1-169)
# Test: SOS1 catalyzed nucleotide exchange assay (TR-FRET)
# Format: biochemical
# Details: GDP-loaded HIS-KRAS(G12V, aa 1-169) 10-15 nM; 0.5 μM SOS1 ExD; 80 nM BODIPY FL GTP; 15 min pre-incubation, 4 hours at 25 °C
# Method: GDP-loaded HIS-KRAS(G12V, aa 1-169) was pre-incubated with a compound in the presence of 10 nM GDP in a 384-well plate (Greiner) for 15 min, then purified SOS1 ExD (Flag tag, aa 564-1049), BODIPY™ FL GTP (Invitrogen) and MAb (monoclonal antibody) Anti 6HIS-Tb cryptate Gold (Cisbio) were added to the assay wells (Final concentration: 10-15 nM GDP-loaded HIS-KRAS(G12V), 5 nM GDP, 0.5 μM SOS1 ExD, 80 nM BODIPY™ FL GTP, 52.5 ng/mL MAb Anti 6HIS-Tb cryptate Gold) and incubated for 4 hours at 25 °C. Wells containing same percent of DMSO served as vehicle control, and wells without KRAS served as low control. TR-FRET signals were read on Tecan Spark multimode microplate reader. The parameters were F486: Excitation 340 nm, Emission 486 nm, Lag time 100 μs, Integration time 200 μs; F520: Excitation 340 nm, Emission 520 nm, Lag time 100 μs, Integration time 200 μs. TR-FRET ratios for each individual wells were calculated by equation: TR-FRET ratio=(Signal F520/Signal F486)*10000. The percent of activation of compounds treated wells were normalized between vehicle control and low control (% Activation=(TR-FRET ratioCompound treated−TR-FRET ratioLow control)/(TR-FRET ratioVehicle control−TR-FRET ratioLow control)*100%). Then the data were analyzed either by fitting a 4-parameter logistic model or by Excel to calculate IC50 values.
# T1 sequence (P01116 1-169 isoform P01116-2 G12V): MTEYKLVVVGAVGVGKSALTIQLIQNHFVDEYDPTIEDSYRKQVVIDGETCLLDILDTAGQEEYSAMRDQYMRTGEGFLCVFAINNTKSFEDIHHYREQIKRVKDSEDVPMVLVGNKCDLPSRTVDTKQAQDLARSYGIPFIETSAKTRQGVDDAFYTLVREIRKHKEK
compound,measurement,value
C#Cc1c(F)ccc2cc(O)cc(-c3nc4c5c(nc(OC[C@@]67CCCN6C[C@H](F)C7)nc5c3F)N(C)C3CC3N4C)c12 (mixture of isomers) [Compound 2],IC50,26.4 nM
C#Cc1c(F)ccc2cc(O)cc(-c3nc4c5c(nc(OC[C@@]67CCCN6C[C@H](F)C7)nc5c3F)N(C)C3COCC3N4C)c12 (mixture of isomers) [Compound 3],IC50,0.757 nM
C#Cc1c(F)ccc2cc(O)cc(-c3nc4c5c(nc(OCC67CCCN6CC(F)C7)nc5c3F)N(C)C3CCCC3N4C)c12 (centres unmarked) [Compound 1],IC50,4.38 nM
C#Cc1c(F)ccc2cc(O)cc(-c3nc4c5c(nc(OC[C@@]67CCCN6C[C@H](F)C7)nc5c3F)N(C)[C@H]3COC[C@H]3N4)c12 [Compound 4],IC50,1.35 nM
C#Cc1c(F)ccc2cc(N)cc(-c3nc4c5c(nc(OCC67CCCN6CC(F)C7)nc5c3F)N(C)C3COCC3N4C)c12 (centres unmarked) [Compound 5],IC50,5.58 nM
